These results are taken from PMC6953623 (Bioorganic & medicinal chemistry letters, 2019).

The experiment deals with AChE (Homo sapiens, UniProt P22303). In kind it is biochemical. The conditions noted are these: result in words.
Chain of AChE (P22303 32-614): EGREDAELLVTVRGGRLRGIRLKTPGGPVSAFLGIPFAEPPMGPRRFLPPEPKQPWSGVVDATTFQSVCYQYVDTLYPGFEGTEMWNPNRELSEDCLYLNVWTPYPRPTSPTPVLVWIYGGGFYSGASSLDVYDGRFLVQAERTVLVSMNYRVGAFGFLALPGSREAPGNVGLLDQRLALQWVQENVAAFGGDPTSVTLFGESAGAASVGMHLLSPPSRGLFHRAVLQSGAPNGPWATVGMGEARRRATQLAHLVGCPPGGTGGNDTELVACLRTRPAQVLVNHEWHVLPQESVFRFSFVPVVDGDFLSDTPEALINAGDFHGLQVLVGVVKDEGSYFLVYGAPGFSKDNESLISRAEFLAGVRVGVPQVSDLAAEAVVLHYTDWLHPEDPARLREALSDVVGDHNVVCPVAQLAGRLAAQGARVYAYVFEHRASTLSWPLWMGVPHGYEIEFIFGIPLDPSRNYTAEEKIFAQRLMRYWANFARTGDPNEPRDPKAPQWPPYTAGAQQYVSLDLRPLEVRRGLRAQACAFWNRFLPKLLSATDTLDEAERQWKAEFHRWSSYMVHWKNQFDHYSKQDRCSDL

Turning to `Cc1cc(CSCCc2nc3ccccc3[nH]2)c(O)c(CSCCc2nc3ccccc3[nH]2)c1` [NSC620023], the “inhibition of AChE” value is listed as “no inhibition of AChE at all”.
